# Reference: patent US20040091860A1 (priority 1999, published 2004)
# How the values were obtained:
# rice POX genes [1] = tested on: rice POX genes; parameters: species or system Oryza sativa cv. Nipponbare
# rice POX genes [2] = assay: Inducibility of rice peroxidases to ethephon and MeJA (RNA gel blot analysis); format: in vivo, Oryza sativa cv. Nipponbare; settings: for response of R2151 gene expression to stimuli: R2151 gene (group A1), FIG. 8(d), day 16, compared with control; for expression of R2693, R2329, S11222, prxRPA, R2576, R2184 and C52903 POX genes: leaf blades of 16-day-old seedlings, 1 mM ethephon or 25 μM MeJA solution sprayed onto whole plants, 48 hours, versus leaf blade without stress
# Method: Gene expression was analyzed by subjecting total RNAs isolated by the ATA method (Nagy et al., Reference 35) to RNA gel blot analysis (Ausubel et al., Reference 36).
# cDNA fragments containing 3′ untranslated regions of 21 rice POX genes indicated by boxes in FIG. 1 were amplified by the PCR method. The amplified fragments were used as probes specific to the respective POX genes for the RNA gel blot analysis.
# The above-described RNAs were subjected to electrophoresis, followed by transcription to a membrane (HyBond N, Amersham). The specific probes were allowed to hybridize, followed by washing for 5 min (once) and for 10 min (twice) in 2×SSC containing 0.1% SDS at room temperature, and then three times in 1×SSC containing 0.1% SDS for 15 min each at 65° C. Subsequently, the membrane was subjected to autoradiography at −80° C. using a film for autoradiography (XA OMT, Kodak) overnight or more. The recovered film was analyzed by the BAS2000 Bioimaging analyzer (Fuji Photo Film Co., Ltd.) or Phosphor Imager SI (Molecular Dynamics) in accordance with the manufacturer's instruction. The amount of RNA loaded was confirmed by monitoring the level of ribosome RNA (rRNA) stained by methylene blue. The expression amounts of the POXs were compared with each other with reference to the rRNA levels.
# 16-day-old seedlings were produced under the conditions described in Example 2. With these seedlings, the inducibility of rice peroxidases to ethephon (an ethylene release factor) and MeJA (a wound information transfer substance) was analyzed. For ethephon stimulus, 1 mM ethephon solution containing 0.05% ethanol was used. For MeJA stimulus, 25 μM MeJA solution containing 0.125% Triton X-100 was used. These solutions were sprayed onto whole plants, and maintained for 48 hours.
# RNAs were extracted from the leaf blades of stimulated rice plants in a manner as described in Example 2. For each POX, expression specificity was analyzed. As a control, leaf blade without a stress were used.
# POX genes = format: in vivo, Oryza sativa cv. Nipponbare; settings: probenazole-treated rice, before and 2, 3, 4 and 5 days after rice blast fungus treatment; FIG. 24
# [3] = tested on: rice blast fungus (M. grisea race(003)); format: in vivo, Magnaporthe grisea; settings: compatible rice treated with probenazole (100 mg/ml) two days before M. grisea race(003), 1×10^5 spores/ml; untreated compatible rice: days 4 and 5
SMILES,response of R2151 gene expression to stimuli (rice POX genes [2]),"expression of R2693, R2329, S11222, prxRPA, R2576, R2184 and C52903 POX genes (rice POX genes [2])",also measured
"C[n+]1ccc(-c2cc[n+](C)cc2)cc1 [paraquat, 1,1-dimethyl-4,4-dipyridinium dichloride]",,,"expression of R2329, prxRPA, R2576 and C52903 (rice POX genes [1]): induced; expression of apoplastic (R2329, prx2576 and R2576) and vacuolar (e.g., R2184 and C52903) POXs (rice POX genes [1]): induced the expression"
"CC/C=C\CC1C(=O)CCC1CC(=O)OC (centres unmarked) [MeJA, methyl jasmonate]",reducible responses,induced expression,
"O=P(O)(O)CCCl [Ethephon, ethephon]",reducible responses,induced expression,
C=CCOC1=NS(=O)(=O)c2ccccc21 [probenazole],,,"expression patterns with E2184, R2576, R2693 and R2329 as probes (POX genes): significantly similar to the transition pattern of formation of lesion spots; lesion spot formation found on days after rice blast fungus treatment [3]: 2 to 3 days"
